Test results taken from patent EP4741392A1, “1H-PYRAZOLO[4,3-C]PYRIDINE COMPOUND, AND COMPOSITION THEREOF AND USE THEREOF” (Shenzhen TargetRx Co., Ltd., priority 2023, dated 2025).

The compounds below were run on Ramos cells with BTK WT (assay: Phosphor-BTK(Y223) assay, suspended cells). Conditions: Homo sapiens, Ramos, phosphorylated BTK Y223, Ramos cells with BTK WT.
Format: cell-based
In short: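 Ramos BTK WT cells (2.5 k/well) were treated with compound dilutions for 2 h at 37 °C, then 5 mM Na3VO4 for 3 h. Lysates were read by HTRF p-BTK(Y223) cryptate/d2 antibodies overnight at RT (665/620 ratio). IC50 came from a four-parameter fit of % inhibition versus blank and positive-control wells.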

Row | IC50 | Compound
1 | ≤ 5 nM | COc1ccc(F)cc1C(=O)NCc1ccc(-c2ncc(-c3cnn4cccnc34)c3[nH]nc(N)c23)cc1 [Example 70, N-(4-(3-amino-7-(pyrazolo[1,5-a]pyrimidin-3-yl)-1H-pyrazolo[4,3-c]pyridin-4-yl)benzyl)-5-fluoro-2-methoxybenzamide]
2 | ≤ 5 nM | COc1ccc(F)cc1C(=O)NCc1ccc(-c2ncc(-c3cc4n(n3)CCN(C)C4)c3[nH]nc(N)c23)cc1 [Example 71, N-(4-(3-amino-7-(5-methyl-4,5,6,7-tetrahydropyrazolo[1,5-a]pyrazin-2-yl)-1H-pyrazolo[4,3-c]pyridin-4-yl)benzyl)-5-fluoro-2-methoxybenzamide]
3 | ≤ 5 nM | CCN1CCn2nc(-c3cnc(-c4ccc(CNC(=O)c5cc(F)ccc5OC)cc4)c4c(N)n[nH]c34)cc2C1 [Example 72, N-(4-(3-amino-7-(5-ethyl-4,5,6,7-tetrahydropyrazolo[1,5-a]pyrazin-2-yl)-1H-pyrazolo[4,3-c]pyridin-4-yl)benzyl)-5-fluoro-2-methoxybenzamide]
4 | ≤ 5 nM | COc1ccc(F)cc1C(=O)NCc1ccc(-c2ncc(-c3ccc(N4CCN(C)CC4)cn3)c3[nH]nc(N)c23)cc1 [Example 73, N-(4-(3-amino-7-(5-(4-methylpiperazin-1-yl)pyridin-2-yl)-1H-pyrazolo[4,3-c]pyridin-4-yl)benzyl)-5-fluoro-2-methoxybenzamide]
5 | ≤ 5 nM | COc1ccc(F)cc1C(=O)NCc1ccc(-c2ncc(-c3ccc(N4CCN(C)C[C@@H]4C)cn3)c3[nH]nc(N)c23)cc1 [Example 74, (S)-N-(-4-(3-amino-7-(5-(2,4-dimethylpiperazin-1-yl)pyridin-2-yl) 1H-pyrazolo[4,3-c]pyridin-4-yl)benzyl)-5-fluoro-2-methoxybenzamide]
6 | ≤ 5 nM | COc1ccc(F)cc1C(=O)NCc1ccc(-c2ncc(-c3ccc(N4CCN(C)C[C@H]4C)cn3)c3[nH]nc(N)c23)cc1 [Example 75, (R)-N-(-4-(3-amino-7-(5-(2,4-dimethylpiperazin-1-yl)pyridin-2-yl) 1H-pyrazolo[4,3-c]pyridin-4-yl)benzyl)-5-fluoro-2-methoxybenzamide]
7 | ≤ 5 nM | COc1ccc(F)cc1C(=O)NCc1ccc(-c2ncc(-c3ccc(N4CCOCC4)cn3)c3[nH]nc(N)c23)cc1 [Example 76, N-(4-(3-amino-7-(5-morpholinopyridin-2-yl)-1H-pyrazolo[4,3-c]pyridin-4-yl)benzyl)-5-fluoro-2-methoxybenzamide]
8 | ≤ 5 nM | COc1ccc(F)cc1C(=O)NCc1ccc(-c2ncc(-c3nccn4cccc34)c3[nH]nc(N)c23)cc1 [Example 77, N-(4-(3-amino-7-(pyrrolo[1,2-a]pyrazin-1-yl)-1H-pyrazolo[4,3-c]pyridin-4-yl)benzyl)-5-fluoro-2-methoxybenzamide]
9 | ≤ 5 nM | COc1ccc(F)cc1C(=O)NCc1ccc(-c2ncc(-c3cc4cnccn4n3)c3[nH]nc(N)c23)cc1 [Example 78, N-(4-(3-amino-7-(pyrazolo[1,5-a]pyrazin-2-yl)-1H-pyrazolo[4,3-c]pyridin-4-yl)benzyl)-5-fluoro-2-methoxybenzamide]
10 | 10 to 50 nM | COc1ccc(F)cc1C(=O)NCc1ccc(-c2ncc(-c3ccc(F)cn3)c3[nH]nc(N)c23)c(F)c1 [Example 82, N-(4-(3-amino-7-(5-fluoropyridin-2-yl)-1H-pyrazolo[4,3-c]pyridin-4-yl)-3-fluorobenzyl)-5-fluoro-2-methoxybenzamide]

Same assay, conditions: Homo sapiens; phosphorylated BTK Y223, Ramos cells with BTK WT

Row | Compound | IC50
11 | COc1ccc(F)cc1C(=O)NCc1ccc(-c2ncc(-c3ccc(NC(=O)C4CC4)cn3)c3[nH]nc(N)c23)cc1 [Example 79, N-(4-(3-amino-7-(5-(cyclopropaneformamido)pyridin-2-yl)-1H-pyrazolo[4,3-c]pyridin-4-yl)benzyl)-5-fluoro-2-methoxybenzamide] | 5 to 10 nM
12 | COc1ccc(F)cc1C(=O)NCc1ccc(-c2ncc(-c3cc(NC(=O)C4CC4)ccn3)c3[nH]nc(N)c23)cc1 [Example 80, N-(4-(3-amino-7-(4-(cyclopropaneformamido)pyridin-2-yl)-1H-pyrazolo[4,3-c]pyridin-4-yl)benzyl)-5-fluoro-2-methoxybenzamide] | ≤ 5 nM
